Test results published in US20080207751A1, “Sulindac Derivatives for Treatment of Cancer” (Sulfidris s.r.l., priority 2005, published 2008).
Read-outs that look alike come from different tables or passages of the source.

Assays:
[1] = tested on: Aberrant crypt foci (ACF); assay: Aberrant crypt foci (ACF) induced by 1,2-dimethylhydrazine in rats; assay type: in vivo; conditions: DMH-induced ACF, Sprague-Dawley rats; equivalent anti-inflammatory doses, twice daily orogastric gavage for 3 weeks
Experimental: Aberrant crypt foci (ACF) were induced in Sprague-Dawley rats by using 1,2-dimethylhydrazine (DMH). Test agents or vehicle were then administered for 3 weeks, twice daily through orogastric gavage.
At the end of this period, the number and multiplicity of ACF were determined.

[2] = Five-day oral safety study in rats (deaths, gastrointestinal ulcers at autopsy); assay type: in vivo; conditions: male rats, once daily by gavage for five days; sulindac sulfoxide 20 mg/kg, compound example 1 36 mg/kg
Experimental: Thirty male rats (150-200 g) were divided into three groups of 10 animals/group and treated with vehicle, sulindac sulfoxide (20 mg/kg) and the compound example 1 (36 mg/kg) for five days once daily by gavage.
At the fifth day survival animals were sacrificed 6 hr after the treatment by an overdose of ether, and autopsied to detect any pathological changes, particularly in the gastrointestinal tract.

Caco 2 cells = assay: Anti-proliferative activity in Caco 2 cells; assay type: cell-based
Experimental: In order to analyze sulindac derivatives in combination therapies for treatment of colon cancer, the compound of example 4 was tested in Caco 2 cell lines comparatively with other known therapeutic agents at different concentrations.
The results of the treatment with 5-FU, celecoxib and docetaxel in Caco 2 cell are depicted in the Table 3 below reported.
In another experiment the compound of example 4 at IC50 concentration was incubated with submaximal concentrations of the anti-tumoral standard agents.

CC1=C(CC(=O)O)c2cc(F)ccc2/C1=C\c1ccc(S(C)(=O)=O)cc1 [sulindac sulfone, (Z)-5-Fluoro-2-methyl-1-[[4-(methylsulfone)phenyl]methylene]-1H-indene-3-acetic acid]
reduction of the number of ACF [1]: 36%

CC1=C(CC(=O)O)c2cc(F)ccc2/C1=C\c1ccc([S+](C)[O-])cc1 (centres unmarked) [Sulindac sulfoxide, (Z)-5-Fluoro-2-methyl-1-[[4-(methylsulfinyl)phenyl]methylene]-1H-indene-3-acetic acid]
% deaths [2]: 70% | % gastrontestinal ulcers [2]: 100% | reduction of the number of ACF [1]: 46%

CC1=C(CC(=O)OCCSS(C)(=O)=O)c2cc(F)ccc2/C1=C\c1ccc(S(C)(=O)=O)cc1 [Example 8, (Z)-5-Fluoro-2-methyl-1-[[4-(methylsulfone)phenyl]methylene]-1H-indene-3-acetic acid 2-methanesulfonylsulfanylethyl ester]
reduction of the number of ACF [1]: 60%

CC1=C(CC(=O)OCCSS(C)(=O)=O)c2cc(F)ccc2/C1=C\c1ccc([S+](C)[O-])cc1 (centres unmarked) [Example 4, (Z)-5-Fluoro-2-methyl-1-[[4-(methylsulfinyl)phenyl]methylene]-1H-indene-3-acetic acid 2-methanesulfonylsulfanylethyl ester]
IC50 (Caco 2 cells; Homo sapiens): 55 µM | anti-proliferative activity in combination with anti-tumoral standard agents (Caco 2 cells; compound at IC50 concentration incubated with submaximal concentrations of standard agents): marked potentiation

CC1=C(CC(=O)Oc2ccc(-c3cc(=S)ss3)cc2)c2cc(F)ccc2/C1=C\c1ccc([S+](C)[O-])cc1 (centres unmarked) [Example 1, (Z)-5-Fluoro-2-methyl-1-[[4-(methylsulfinyl)phenyl]methylene]-1H-indene-3-acetic acid 4-(thioxo-5H-1-[1,2]dithiol-3-yl)-phenyl ester]
% deaths [2]: 0% | % gastrontestinal ulcers [2]: 10%

O=c1[nH]cc(F)c(=O)[nH]1 [Example 5-FU]
IC50 (Caco 2 cells): 28 µM

CC1=C(CC(=O)Oc2ccc(-c3cc(=S)ss3)cc2)c2cc(F)ccc2/C1=C\c1ccc(S(C)(=O)=O)cc1 [Example 3, (Z)-5-Fluoro-2-methyl-1-[[4-(methylsulfone)phenyl]methylene]-1H-indene-3-acetic acid 4-(thioxo-5H-[1,2]dithiol-3-yl)-phenyl ester]
reduction of the number of ACF [1]: 45%

CC(=O)O[C@@]12CO[C@@H]1C[C@H](O)[C@@]1(C)C(=O)[C@H](O)C3=C(C)[C@@H](OC(=O)[C@H](O)[C@@H](NC(=O)OC(C)(C)C)c4ccccc4)C[C@@](O)([C@@H](OC(=O)c4ccccc4)[C@H]21)C3(C)C [Docetaxel]
IC50 (Caco 2 cells; Homo sapiens): 0.005 µM

Cc1ccc(-c2cc(C(F)(F)F)nn2-c2ccc(S(N)(=O)=O)cc2)cc1 [celecoxib]
IC50 (Caco 2 cells; Homo sapiens): 60 µM | reduction of the number of ACF [1]: 22%
